Source: paper PMC8393326, “A Thermodynamic Analysis of the Binding Specificity between Four Human PDZ Domains and Eight Host, Viral and Designed Ligands” (Biomolecules, 2021)
Like-named read-outs stand apart in the source and are kept apart here. Where no end group is shown, it is not given here.

Columns and labels:
[1] = target: Erbin-PDZ; details: ERBB2 C-terminal tail of 9 residues; cited from earlier work
Description: Again, no class II or III peptides were able to bind PSD95-PDZ3 either. […] Instead, the striking resu ...

[2] = target: T1, PSD95-PDZ2 (Homo sapiens, UniProt P78352); assay: ITC titration of PSD95-PDZ2 with peptides; type: binding; set-up: key to interaction or not with PSD95 PDZ2: The tick (✓) and the cross (✕) signs mean whether there is interaction or not, respectively, as demonstrated in this study; The tick (✓) and the cross (✕) signs mean whether there is interaction or not, respectively, as demonstrated in this study; details: for Kd: ITC, 25 °C, 50 mM potassium phosphate pH 7.5, protein 70 μM in cell, peptide 900 μM, single-site model, n 0.8 to 1.1; for interaction or not with PSD95 PDZ2: Figure 1 summary, ITC, and DSC where ITC showed no binding
T1 construct: PSD95-PDZ2 (residues 155–249, according to PSD95 numbering); made in house; host or cells: Escherichia coli BL21-DE3
Procedure: (§1) The DNA encoding the sequences of PSD95-PDZ2 (residues 155–249, according to PSD95 numbering), PSD95-PDZ3 (residues 302–415, according to PSD95 numbering), nNOS-PDZ (residues 1–127, in nNOS numbering) and Erbin-PDZ (given generously by Prof. Sachdev Sidhu, University of Toronto, Toronto, ON, Canada), were sub-cloned into pBAT4 vector (EMBL Core Purification Facility, Heidelberg, Germany) and expressed in Escherichia coli BL21-DE3 cells. Protein purification was carried out as previously described. Briefly, cultures were over-expressed overnight and centrifuged. After cell lysis with a French press, the lysates were centrifuged and the pH of the supernatant was lowered down to a pH of 3 with diluted HCl. Upon centrifugation, ammonium sulfate was added to the samples, which were then injected into an AKTA FPLC for preparative size exclusion chromatography. Roughly 15 milligrams of protein per liter of LB culture were obtained and purity was determined by SDS-Page electrophoresis. MALDI-TOF spectrometry, performed at the Scientific Instrumentation Services (CIC) of the University of Granada (Granada, Spain), confirmed the molecular mass for each PDZ domain. Extinction coefficients, determined as described, were used to calculate sample concentration. Experimental samples were always prepared by extensive dialysis against 50 mM potassium phosphate buffer at a pH of 7.5 and 4 °C.
(§2) Calorimetric titrations of the PDZ domains with the peptides were undertaken at 25 °C on an ITC-200 titration microcalorimeter (Microcal Inc., Northampton, MA, USA), as previously described. Protein concentrations in the cell were routinely 70 μM and peptides solutions were prepared using the dialysis buffer to have a final concentration of 900 μM. Titrations were all made by injecting 2 μL volumes of ligand solution, with a final number of 19 injections per experiment. As a control and reference, independent experiments were carried out with only buffer in the calorimeter cell with the same ligand solutions to determine the corresponding heat dilution. The dilution isotherms were then subtracted from that obtained for protein titration. The binding stoichiometry, n, the dissociation constant, Kd and the corresponding enthalpy change, ΔH, were determined by fitting the resulting titration isotherm to a model considering a single ligand binding site using ORIGIN 7.0 (OriginLab Corporation, Northampton, MA, USA, 2002).
(§3) We performed ITC experiments at 25 °C between all the selected PDZ domains and peptides. For the sake of comparison, the experiments were all conducted in the same buffer conditions, 50 mM potassium phosphate and pH of 7.5, which presents the advantage of having an insignificant protonation heat, meaning that the experimentally determined enthalpy changes should just account for the net heat of reaction. A table summarizing all interactions is shown in Figure 1, whilst we have just included the successful experiments graphs, both in Figure 2 and in the SI (Figure S1).

[3] = target: T2, PSD95-PDZ3 (Homo sapiens, UniProt P78352); assay: ITC titration of PSD95-PDZ3 with peptides; type: binding; set-up: key to interaction or not with PSD95 PDZ3: The tick (✓) and the cross (✕) signs mean whether there is interaction or not, respectively, as demonstrated in this study; The tick (✓) and the cross (✕) signs mean whether there is interaction or not, respectively, as demonstrated in this study; details: for Kd: ITC, 25 °C, 50 mM potassium phosphate pH 7.5, protein 70 μM in cell, peptide 900 μM, single-site model, n 0.8 to 1.1; for interaction or not with PSD95 PDZ3: Figure 1 summary, ITC, and DSC where ITC showed no binding
T2 construct: PSD95-PDZ3 (residues 302–415, according to PSD95 numbering); made in house; host or cells: Escherichia coli BL21-DE3
Procedure: as §1, §2, §3

[4] = target: T3, Erbin-PDZ (Homo sapiens, UniProt Q96RT1); assay: ITC titration of Erbin-PDZ with peptides; type: binding; set-up: key to interaction or not with Erbin PDZ: The tick (✓) and the cross (✕) signs mean whether there is interaction or not, respectively, as demonstrated in this study; The tick (✓) and the cross (✕) signs mean whether there is interaction or not, respectively, as demonstrated in this study; details: for Kd: 50 mM potassium phosphate pH 7.5, protein 70 μM in cell, peptide 900 μM, single-site model, n 0.8 to 1.1; for interaction or not with Erbin PDZ: Figure 1 summary, ITC, and DSC where ITC showed no binding
T3 construct: made in house; host or cells: Escherichia coli BL21-DE3
Procedure: as §1, §2, §3

[5] = tested on: nNOS-PDZ; assay: DSC of nNOS-PDZ with and without peptides (Tm displacement); type: binding, human; set-up: key to interaction or not with nNOS PDZ: The tick (✓) and the cross (✕) signs mean whether there is interaction or not, respectively, as demonstrated in this study; The tick (✓) and the cross (✕) signs mean whether there is interaction or not, respectively, as demonstrated in this study; details: for ΔTm of nNOS-PDZ: DSC, PDZ:peptide 1:3, 50 mM potassium phosphate pH 7.5, nNOS-PDZ alone 55 °C; for interaction or not with nNOS PDZ: Figure 1 summary, no binding by ITC, interaction shown by DSC
Procedure: (§4) Experiments were carried out in a VP-DSC instrument from Microcal INC. as described elsewhere. The buffer conditions were the same as with ITC experiments, 50 mM buffer potassium phosphate at a pH of 7.5. For experiments including the peptides, the final concentration ratio was 1:3 (protein:peptide). Final data were obtained after treatment with ORIGIN 7.0 (OriginLab Corporation, Northampton, MA, USA, 2002).
(§5) The final ratio of PDZ:peptide was always 1:3. DSC is also a calorimetric technique but that allows finding a more subtle binding, weaker than that from ITC [33]. Undoubtedly, ITC presents greater advantages, since it gives an exhaustive characterization of the binding interaction, granting the whole thermodynamics of the system; nevertheless, if the interactions are out of the ITC range, usually when they are weak (Kd values in the mM range), it is not sensitive enough to detect binding. By contrast, DSC can detect weak binding by a displacement of the melting temperature (Tm) due to the stabilization that occurs upon binding. Essentially, when a ligand is bound to the protein, energy is needed to decouple the interacting pair before protein denaturalization. In this way, the Tm is increased and the ΔTm is proportional to the interaction energy.

[6] = target: T2, PSD95-PDZ3; details: cited from earlier work
Description: Unfortunately, the calorimetric traces for nNOS-PDZ are highly irreversible, which prevents an analysis that would potentially yield a Kd value. Instead, we can approximately estimate a Kd range based on previous cases in PDZ binding. We have taken as a reference two PDZ-peptide interactions. Firstly, the binding of PSD95-PDZ3 with the peptide KKETAV formerly described by us. We had previously performed both ITC and DSC with PSD95-PDZ3 and KKETAV. The concentrations ...

[7] = target: T1, PSD95-PDZ2; assay: DSC of PSD95-PDZ2 with and without peptides; type: binding; details: PDZ:peptide 1:3, 50 mM potassium phosphate pH 7.5 (Figure S2)
Procedure: as §4, §5

T2 sequence (P78352 302-415): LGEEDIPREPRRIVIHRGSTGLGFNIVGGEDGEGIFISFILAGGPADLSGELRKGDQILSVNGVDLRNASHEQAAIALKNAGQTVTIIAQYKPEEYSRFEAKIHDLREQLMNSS
T1 sequence (P78352 155-249): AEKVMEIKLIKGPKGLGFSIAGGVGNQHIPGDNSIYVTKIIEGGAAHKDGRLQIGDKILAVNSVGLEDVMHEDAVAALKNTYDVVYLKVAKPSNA
T3 sequence (Q96RT1 1321-1410 limits assumed): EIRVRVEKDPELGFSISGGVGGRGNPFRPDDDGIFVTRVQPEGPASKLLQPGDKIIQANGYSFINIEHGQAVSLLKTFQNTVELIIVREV

Row | Substance | Kd [2] | Kd ([4]; ITC, 25 °C) | interaction or not with PSD95 PDZ2 [2] | interaction or not with PSD95 PDZ3 [3] | interaction or not with Erbin PDZ [4] | ΔTm of nNOS-PDZ [5] | interaction or not with nNOS PDZ [5] | other results
1 | EYLGLDVPV [ERBB2 C-terminal tail comprising 9 residues, literature value] | – | – | – | – | – | – | – | Kd [1]: ~50 µM
2 | FRETEV [HTLV1 Tax] | 1.5 ± 0.1 µM | 7.8 ± 0.9 µM | – | – | – | – | – | Kd [3]: 3.8 ± 0.2 µM
3 | GLDVPV (UniProt P04626 1250-1255, looked up, fragment) [ERBB2, six-residue C-terminal peptide of host receptor tyrosine kinase ERBB2, class II PDZ ligand] | – | – | ✕ | ✕ | ✕ | 2 °C | ✓ | binding to Erbin-PDZ by ITC ([4]; ITC, 25 °C, 50 mM potassium phosphate pH 7.5): lack of binding
4 | IAESSV [HTLV3 Tax] | 20 ± 3.8 µM | 23 ± 9 µM | – | – | – | – | – | Kd [3]: 43 ± 10 µM
5 | KIATLV [AdV E4 ORF1] | 11.5 ± 0.5 µM | – | – | – | – | – | – | –
6 | KKETAV | – | – | – | – | – | – | – | ΔTm of PSD95-PDZ3 ([6]; DSC, PDZ:peptide 1:3): about 9 °C; Kd ([6]; ITC, same concentrations as this study): 1.5 µM
7 | LLDEIAV [CAPON, C-terminus of CAPON, cytoplasmic protein; class II peptide, cognate nNOS partner] | – | – | ✕ | ✕ | ✕ | 3 °C | ✓ | –
8 | TGWETWV [Erbin PDZ binder] | 5.7 ± 0.2 µM | 0.24 ± 0.08 µM | – | – | – | – | – | ΔTm of PSD95-PDZ2 [7]: around 6 °C
9 | VVKVDSV [MelR, C-terminal region of a melatonin receptor] | – | – | ✕ | ✕ | ✕ | 3 °C | ✓ | –
